Patent US4012576A, “Antibiotic complex Bu 2183” (priority 1975, dated 1977)
In brackets after ≈: the same amount, converted by molar mass. Read-outs that look alike come from different tables or passages of the source.

Legend:
[1] = test system: E. coli, K. pneumoniae, Ps. aeruginosa, S. aureus, B. subtilis; assay: Effect of media pH on MIC (overall); type: cell-based; conditions: Nutrient Agar, pH 6.0-9.0
From the text: (§1) Effect of media pH on the MIC of Bu-2183 A was studied by two-fold agar dilution method using Nutrient Agar Medium at pH 6.0, 7.0, 8.0 and 9.0.

[2] = test system: S. aureus Smith; assay: Effect of media pH on MIC, two-fold agar dilution; type: cell-based; conditions: Staphylococcus aureus, Table 8, Nutrient Agar
From the text: as §1

[3] = test system: Ps. aeruginosa D 15; assay: Effect of media pH on MIC, two-fold agar dilution; type: cell-based; conditions: Pseudomonas aeruginosa, D15, Table 8, Nutrient Agar
From the text: as §1

[4] = test system: E. coli NIHJ; assay: Effect of media pH on MIC, two-fold agar dilution; type: cell-based; conditions: Escherichia coli, Table 8, Nutrient Agar
From the text: as §1

[5] = test system: K. pneumoniae D 11; assay: Effect of media pH on MIC, two-fold agar dilution; type: cell-based; conditions: Klebsiella pneumoniae, D11, Table 8, Nutrient Agar
From the text: as §1

[6] = test system: B. subtilis PCI 219; assay: Effect of media pH on MIC, two-fold agar dilution; type: cell-based; conditions: Bacillus subtilis, PCI219, Table 8, Nutrient Agar
From the text: as §1

[7] = test system: eight test organisms; assay: Effect of media on activity (overall); type: cell-based; conditions: pH 8; Nutrient Agar, Heart Infusion Agar, Mueller-Hinton Agar
Protocol: The effect of media on the activity of Bu-2183 A and B was determined against eight test organisms. The media tested were Nutrient Agar, Heart Infusion Agar and Mueller-Hinton Agar. The media pH was adjusted at pH 8.

[8] = Titration in water; type: physicochemical
[9] = in vivo; conditions: for no death at doses up to: 21600 min
Protocol: The acute toxicity of Bu-2183 A and B was determined in mice by the subcutaneous and intravenous routes.

[10] = Solubility; type: physicochemical; conditions: base
[11] = test system: S. aureus Smith, E. coli NIHJ and Ps. aeruginosa A9930; assay: Experimental infections of mice (all three pathogens); type: in vivo; conditions: subcutaneous
Protocol: Bu-2183 A and B were evaluated in vivo in experimental infections of mice. The pathogenic bacteria employed were S. aureus Smith, E. coli NIHJ and Ps. aeruginosa A9930. Mice were challenged with a 100 × LD50 dose of the pathogens in a 5% suspension of hog gastric mucin. A single subcutaneous treatment with the antibiotic was made immediately after the bacterial challenge (0 hour), and in a double dose schedule the antibiotic was administered at 0 and 3 hours after the challenge.

[12] = test system: E. coli JR 35/C600; assay: MIC, two-fold agar dilution on Nutrient Agar; type: cell-based
Protocol: (§2) The minimum inhibitory concentrations (MIC) of Bu-2183 A and B were determined against a wide variety of bacteria by the two-fold agar dilution method on Nutrient Agar plates. The inocula-replicating device of Steers et al. was used. Inoculum size was adjusted to be 10^4 dilution of overnight culture of the test organisms in Heart Infusion Broth (Difco). The results are shown in Table 6 along with those of kanamycin which was comparatively tested as a reference antibiotic.

[13] = test system: S. aureus Smith; assay: MIC, two-fold agar dilution on Nutrient Agar; type: cell-based; conditions: Staphylococcus aureus, read-out: MIC
Protocol: as §2

[14] = test system: Ps. aeruginosa No. 130; assay: MIC, two-fold agar dilution on Nutrient Agar; type: cell-based
Protocol: as §2

[15] = test system: S. aureus A20239; assay: MIC, two-fold agar dilution on Nutrient Agar; type: cell-based; conditions: Staphylococcus aureus, read-out: MIC
Protocol: as §2

[16] = test system: E. coli NR 79/W677; assay: MIC, two-fold agar dilution on Nutrient Agar; type: cell-based; conditions: Escherichia coli
Protocol: as §2

[17] = test system: Ent. cloacae A21006; assay: MIC, two-fold agar dilution on Nutrient Agar; type: cell-based
Protocol: as §2

[18] = test system: Pr. mirabilis A9554; assay: MIC, two-fold agar dilution on Nutrient Agar; type: cell-based; conditions: Proteus mirabilis, read-out: MIC
Protocol: as §2

[19] = test system: E. coli A20895; assay: MIC, two-fold agar dilution on Nutrient Agar; type: cell-based; conditions: Escherichia coli, read-out: MIC
Protocol: as §2

[20] = Pseudomonas aeruginosa, NO.130, Table 6, Pa-16, read-out: MIC
[21] = Enterobacter cloacae, A21006, Table 6, El-12, read-out: MIC

CCC(=O)NC1C(CO)OC(OC(C(O)CN)C(N)C(O)CO)C(O)C1O (stereo not shown) [Bu-2183 A]
effect of media pH on activity [1]: increased at alkaline pH and decreased at acidic pH
MIC ([2]; pH 6): > 50 µg/mL
MIC ([2]; pH 7): 50 µg/mL (≈ 126 µM)
MIC ([2]; pH 8): 50 µg/mL (≈ 126 µM)
MIC ([2]; pH 9): 50 µg/mL (≈ 126 µM)
MIC ([3]; pH 6): > 50 µg/mL
MIC ([3]; pH 7): 50 µg/mL (≈ 126 µM)
MIC ([3]; pH 8): 25 µg/mL (≈ 62.9 µM)
MIC ([3]; pH 9): 12.5 µg/mL (≈ 31.5 µM)
MIC ([4]; pH 6): > 50 µg/mL
MIC ([4]; pH 7): 50 µg/mL (≈ 126 µM)
MIC ([4]; pH 8): 25 µg/mL (≈ 62.9 µM)
MIC ([4]; pH 9): 12.5 µg/mL (≈ 31.5 µM)
MIC ([5]; pH 6): 12.5 µg/mL (≈ 31.5 µM)
MIC ([5]; pH 7): 12.5 µg/mL (≈ 31.5 µM)
MIC ([5]; pH 8): 12.5 µg/mL (≈ 31.5 µM)
MIC ([5]; pH 9): 3.1 µg/mL (≈ 7.8 µM)
MIC ([6]; pH 6): 50 µg/mL (≈ 126 µM)
MIC ([6]; pH 7): 6.3 µg/mL (≈ 15.9 µM)
MIC ([6]; pH 8): 6.3 µg/mL (≈ 15.9 µM)
MIC ([6]; pH 9): 6.3 µg/mL (≈ 15.9 µM)
medium of greatest in vitro activity [7]: the greatest in vitro activity was demonstrated when Nutrient Agar was used
pKa ([8]; read-out: pKa' (first value)): 6.9
pKa ([8]; read-out: pKa' (second value)): 9.4
LD50 ([9]; mouse, in vivo, iv): 2500 mg/kg
LD50 at 360 h ([9]; mouse, in vivo, sc): 1000 mg/kg
solubility in methanol and ethanol [10]: slightly soluble
solubility in n-butanol, acetone and other common organic solvents [10]: practically insoluble
solubility in water [10]: soluble
in vivo activity [11]: afforded in vivo activity against all three of the infections tested
MIC ([12]; Escherichia coli, JR35/C600): 6.3 µg/mL (≈ 15.9 µM)
MIC ([12]; Table 7, Ec-10): 6.3 µg/mL (≈ 15.9 µM)
MIC ([13]; Table 6, Sa-2): 12.5 µg/mL (≈ 31.5 µM)
MIC ([13]; Table 7, Sa-2): 25 µg/mL (≈ 62.9 µM)
MIC [14, 20]: 25 µg/mL (≈ 62.9 µM)
MIC ([14]; Table 7, Pa-16): 25 µg/mL (≈ 62.9 µM)
MIC ([15]; A20239, Table 6, Sa-10): 25 µg/mL (≈ 62.9 µM)
MIC ([15]; A20239, Table 7, Sa-10): 50 µg/mL (≈ 126 µM)
MIC ([16]; NR79/W677, Table 6, Ec-9): 25 µg/mL (≈ 62.9 µM)
MIC ([16]; NR79/W677, Table 7, Ec-9): 12.5 µg/mL (≈ 31.5 µM)
MIC [17, 21]: 25 µg/mL (≈ 62.9 µM)
MIC ([17]; Table 7, El-12): 25 µg/mL (≈ 62.9 µM)
MIC ([18]; A9554, Table 6, Pm-1): 12.5 µg/mL (≈ 31.5 µM)
MIC ([18]; A9554, Table 7, Pm-1): 25 µg/mL (≈ 62.9 µM)
MIC ([19]; A20895, Table 6, Ec-62): 12.5 µg/mL (≈ 31.5 µM)
MIC ([19]; A20895, Table 7, Ec-62): 25 µg/mL (≈ 62.9 µM)

CC(=O)NC1C(CO)OC(OC(C(O)CN)C(N)C(O)CO)C(O)C1O (stereo not shown) [Bu-2183 B]
medium of greatest in vitro activity [7]: the greatest in vitro activity was demonstrated when Nutrient Agar was used
pKa ([8]; read-out: pKa' (first value)): 7.15
pKa ([8]; read-out: pKa' (second value)): 9.35
acute toxicity compared with Bu-2183 A ([9]; mice, i.v. and s.c.): much less toxic than Bu-2183 A
no death at doses up to ([9]; mouse, in vivo, iv): ≥ 2000 mg/kg
no death at doses up to ([9]; mouse, in vivo, sc): ≥ 2000 mg/kg
solubility in methanol and ethanol [10]: slightly soluble
solubility in n-butanol, acetone and other common organic solvents [10]: practically insoluble
solubility in water [10]: soluble
in vivo activity [11]: afforded in vivo activity against all three of the infections tested
MIC ([12]; Escherichia coli, JR35/C600): 12.5 µg/mL (≈ 32.6 µM)
MIC ([13]; Table 6, Sa-2): 50 µg/mL (≈ 130 µM)
MIC [14, 20]: 100 µg/mL (≈ 261 µM)
MIC ([15]; A20239, Table 6, Sa-10): 100 µg/mL (≈ 261 µM)
MIC ([16]; NR79/W677, Table 6, Ec-9): 100 µg/mL (≈ 261 µM)
MIC [17, 21]: 100 µg/mL (≈ 261 µM)
MIC ([18]; A9554, Table 6, Pm-1): 25 µg/mL (≈ 65.2 µM)
MIC ([19]; A20895, Table 6, Ec-62): 50 µg/mL (≈ 130 µM)
